From patent publication US20050165080A1, “Method for the treatment of diseases requiring inhibition or a reduction in the activity of pH value-regulating bicarbonate transporter proteins” (Solvay Pharmaceuticals GmbH, priority 2002, published 2005)

What was measured:
[1] = test system: Na+-independent chloride-bicarbonate (Cl−/HCO3−) exchanger (AE) protein; assay: Intracellular pH recovery after alkalization (NH4Cl pulse) in BCECF-laden adult cardiac fibroblasts; format: cell-based, Wistar rats; conditions: for recovery after the intracellular alkalization, compared with guanabenz-pre-treated or non-pre-treated cells / percentage of the change in pH value still present, relative to the maximum alkaline pH value reached, after 5 min / percentage of the change in pH value still present, relative to the maximum alkaline pH value reached, after 8 min: 30 min preincubation; for recovery after the intracellular alkalization, compared with guanabenz-pre-treated or non-pre-treated cells: moxonidine 10^−6 to 10^−9 mole/liter, H2-DIDS 10^−3 mole/liter, NH4Cl pulse; for percentage of the change in pH value still present, relative to the maximum alkaline pH value reached, after 5 min / percentage of the change in pH value still present, relative to the maximum alkaline pH value reached, after 8 min: 10^−6 mole/liter, 5 mmole/liter NH4Cl pulse, cardiac fibroblasts, mean and standard deviation from 3 to 5 experiments; for percentage of the change in pH value still present, relative to the maximum alkaline pH value reached, after 5 min: 5 min after maximum alkaline pH; for percentage of the change in pH value still present, relative to the maximum alkaline pH value reached, after 8 min: 8 min after maximum alkaline pH
Protocol: (§1) The investigations were carried out on cardiac fibroblasts isolated from the left ventricle of the myocardium of 6-week-old Wistar rats. Myocardial tissue was placed in HBSS medium without Ca^2+ and Mg^2+ (GibcoBRL), cut into small pieces which were incubated with 1 mg/ml collagenase A (Roche) with continuous shaking for 10 minutes in HBSS medium. The first supernatant was discarded and the incubation operation was repeated three times, the supernatant being collected each time in a tube with 5 ml HBSS medium. After centrifuging at 160×g for 10 min, the pellet was re-suspended in a flask with DMEM (GibcoBRL), to which 10% foetal calf serum (FCS, from Sigma) was added. […] The flasks were incubated in an air-humidified incubator with 5% CO2 and at 37° C. Cardiac fibroblasts, which grew in a typical monolayer, were cultivated by standard cell culture techniques and at subconfluence were transferred into new flasks in a 1:3 ratio [Brilla et al. (1994) Collagen metabolism in cultured adult rat cardiac fibroblasts: response to agiotensin II and aldosterone. J. Mol. Cell Cardiol. 26: 809-820].
The intracellular pH value of an individual cell was measured using the fluorescent marker BCECF (2′,7′-bis-(2-carboxymethyl)-5-[and -6]-carboxyfluorescein from Molecular Probes), the fluorescent intensity of which is pH-dependent. The cardiac fibroblasts were grown on glass microscope slides until at subconfluence, and were then laden with BCECF-acetoxymethyl ester. The fibroblasts thus pre-treated were washed with PBS and then preincubated with various test solutions and then rinsed. In so doing, the intracellular fluorescence of the BCECF was measured using an inverted microscope, to which a “PTI 710 Photon Counting Detection” system (Photon Technology International) with two monochromators was connected. The data were analysed using a fluorescence spectrometer. The measurement results—fluorescence signals—were converted into pH values using a calibration curve.
Composition of the bicarbonate solution: 118 mmole/liter NaCl, 4.7 mmole/liter KCl, 2.5 mmole/liter CaCl2×2H2O, 1.6 mmole/liter MgCl2×7H2O, 24.9 mmole/liter NaHCO3, 1.2 mmole/liter KH2PO4, 5.6 mmole/liter glucose and either 0.4% or 10% FCS, equilibrated with 20% O2 and 5% CO2 for at least 30 minutes to ensure a pH value of 7.4.
The individual test solutions were based on the above bicarbonate solution and contained the following concentration of the compounds below: • 10^−6 mole/liter guanabenz (Sigma) • 10^−6 mole/liter to 10^−9 mole/liter moxonidine • 10^−3 mole/liter H2-DIDS (Molecular Probes) Intracellular alkalization of the cells was achieved by rinsing with a 5 mmole/liter NH4Cl-containing bicarbonate solution (NH4Cl pulse). Subsequent washing-out of the NH4Cl by rinsing the cells with fresh bicarbonate solution results in intracellular acidification.
The effect of moxonidine, DIDS and guanabenz on the change in the intracellular pH value after alkalization of the cells is determined by an NH4Cl pulse. To this end, the BCECF-laden cardiac fibroblasts were preincubated for 30 minutes with a bicarbonate test solution containing one of the above compounds. Then the response of the intracellular pH value of the cells thus pre-treated to a 5 mmole/liter NH4Cl pulse was measured over time. Also the change in pH value which took place during the subsequent washing-out of the NH4Cl (intracellular acidification) was further measured over time. […] To quantify the inhibitory effects, the percentage of the change in pH value still present relative to the maximum alkaline or maximum acidic pH value achieved was calculated.

[2] = test system: Na+/bicarbonate (Na+/HCO3−) cotransporter (NBC) protein or/and Na+-dependent chloride-bicarbonate (Cl−/HCO3−) exchanger (NDAE and N(D)CBE) protein; assay: Intracellular pH recovery after acidification (NH4Cl wash-out) in cardiac fibroblasts; format: cell-based, Wistar rats; conditions: recovery from intracellular acidification
Protocol: as §1, with “Cardiac fibroblasts, which grew in a typical monolayer, were cultivated by standard cell culture techniques and at subconfluence were transferred into new flasks in a 1:3 ratio [Brilla et al. (1994) Collagen metabolism in cultured adult rat cardiac fibroblasts: response to agiotensin II and aldosterone. J. Mol. Cell Cardiol. 26: 809-820].” left out
The intracellular pH value of an individual cell was measured using the fluorescent marker BCECF (2′,7′-bis-(2-carboxymethyl)-5-[and -6]-carboxyfluorescein from Molecular Probes), the fluorescent intensity of which is pH-dependent. […] In so doing, the intracellular fluorescence of the BCECF was measured using an inverted microscope, to which a “PTI 710 Photon Counting Detection” system (Photon Technology International) with two monochromators was connected. The data were analysed using a fluorescence spectrometer. The measurement results—fluorescence signals—were converted into pH values using a calibration curve. […]

SMILES	recovery after the intracellular alkalization, compared with guanabenz-pre-treated or non-pre-treated cells [1]	percentage of the change in pH value still present, relative to the maximum alkaline pH value reached, after 5 min [1] [%]	percentage of the change in pH value still present, relative to the maximum alkaline pH value reached, after 8 min [1] [%]	inhibitory effect on the recovery from the alkaline pH (dose-effect curve) ([1]; concentration of 10^−8 mole/liter)	inhibition of NBC or/and NDAE and N(D)CBE proteins (result in words) [2]
O=S(=O)(O)c1cc(N=C=S)ccc1C=Cc1ccc(N=C=S)cc1S(=O)(=O)O [DIDS, 4,4′-diisothiocyanostilbene-4,4′-disulfonate]	considerably longer recovery				
N=C(N)N/N=C/c1c(Cl)cccc1Cl [Guanabenz]		20.6 ± 5.2	9.9 ± 2.7		
COc1nc(C)nc(Cl)c1NC1=NCCN1 [Moxonidine, 4-chloro-5-[(4,5-dihydro-1H-imidazol-2-yl)-amino]-6-methoxy-2-methylpyrimidine]	considerably longer recovery	58.8 ± 12.0	41.9 ± 24.4	significantly inhibitory action	selective inhibitor
